From publication PMC10265666, “Lung SPLUNC1 Peptide Derivatives in the Lipid Membrane Headgroup Kill Gram-Negative Planktonic and Biofilm Bacteria” (Biomacromolecules, 2023) come the findings set out here.

Data set [1] has as its system Klebsiella pneumoniae, 24 clinical isolates and 1 lab strain. Format: cell-based. Particulars: for antibacterial efficacy: tested G(−) bacteria (K. pneumoniae). How it is done: Minimum inhibitory concentration (MIC, defined as the minimum AMP concentration to prevent bacterial growth) and biofilm data were obtained by UV–vis spectroscopy using a BioTek Epoch 2 microplate reader.
K. pneumoniae substrains were grown overnight using 50 mL plastic conical tubes on a shaker platform at 37 °C. The following day, serial dilutions of the four SPLUNC1 peptides and LL-37 were tested against these 25 substrains of K. pneumoniae using a 96-well plate. […] Following the addition of the peptides at the tested concentrations from serial dilutions to the K. pneumoniae substrains, the plates were incubated at 37 °C for 16 h. Then, visible spectroscopy at λ = 570 nm was performed to determine the bacterial absorption in each well. Those wells with an optical density reading above a threshold value were deemed resistant to the peptide, while those that were below the threshold value were deemed sensitive to the peptide. The threshold value was determined using Gen5 software with the Di lab Growth Inhibition Assay protocol.
Average MICs and standard deviations were calculated by first averaging the absorbances as a function of AMP concentration in all of the bacterial strains from four total data sets. Then, the average MICs were determined from the averaged absorbances. The standard deviations of the MICs were calculated from each of the absorbances that were used to calculate the average. Then, the standard deviations were averaged across substrains for the graph. These procedures were used to obtain an average MIC with standard deviation across all 25 substrains for one peptide, in order to compare peptide efficacy. Typically, many more substrains are used to obtain an average MIC, so this average MIC may change if thousands of substrains are compared.

Data set [2] is described as follows: Circular dichroism secondary structure in Euk33 ULVs. The format is physicochemical. Particulars: 10 μM peptide, 15 mM PBS pH 7, 37 °C.
A short description of data set [3]: Circular dichroism secondary structure in G(−)IM ULVs. Format: physicochemical. Particulars: 10 μM peptide, 15 mM PBS pH 7, 37 °C. How it is done: Unilamellar vesicles (ULVs) of ∼600 Å diameter were prepared using an Avanti extruder: 200 μL of 20 mg/ml G(−)IM lipid in 15 mM PBS was extruded 21 times through Nucleopore filters of size 500 Å using 0.2 mL Hamilton syringes in the Avanti extruder. The final concentration of G(−)IM lipid in the ULVs was determined gravimetrically to be 15 mg/ml. Concentrated ULVs were added to 3 mL of 10 μM peptide in 15 mM PBS at pH 7 to create lipid/peptide molar ratios between 0:1 and 70:1. The samples remained at room temperature for ∼16 h before the CD measurement. Data were collected in 3 mL quartz cuvettes using a Jasco 1500 CD spectrophotometer at 37 °C in the Center for Nucleic Acids Science and Technology at Carnegie Mellon University. The samples were scanned from 200 to 240 nm 20 times, and the ellipticity (ϵ) results were averaged. Temperature was controlled at 37 °C via a Peltier element and water circulation through the sample compartment. Nitrogen gas was used at a flow rate between 20 and 25 ft^3/h (CFH). The parameters for scanning were: speed 100 nm/min, step size 1.0 nm, response time 1 second, bandwidth 1 nm, and sensitivity of 20 mdeg. OriginPro 2019 (OriginLab, Northampton, MA) was used to carry out a linear least-squares fit of the smoothed ellipticity traces to four secondary structural motifs representing α-helix, β-sheet, β-turn, and random coil.[20] This analysis gives a percentage match of each of the secondary structural motifs to the total sample ellipticity. Data were finally converted to mean residue ellipticity, taking into account the peptide concentration (10 μMolar) and number of amino acids (N), using the equation: MRE = (10^4/N)ϵ deg cm^2/dmol.

[4] abbreviates: G(−)IM/peptide molar ratio 10:1.
[5] abbreviates: G(−)IM/peptide molar ratio 15:1.
Where [6] appears, read: G(−)IM/peptide molar ratio 20:1.
Setting [7] is: G(−)IM/peptide molar ratio 30:1.
The mark [8] stands for this setting: G(−)IM/peptide molar ratio 50:1.
[9] abbreviates: G(−)IM/peptide molar ratio 70:1.

“And” between values parts separate entries of the source, which are not always exact repeats. Equal entries are not always repeated. Positions of bridges follow the written chain, without caps; N, C: chain ends. Non-standard residues stand in square brackets, D forms with d. Residues, ends and D or L forms follow the SMILES beside them. *: point of attachment. X1 = CC[C@H](C)CCCCC(=O)*; Dab = NCC[C@H](N)C(=O)O Some results are limits rather than exact numbers.

For `CC[C@H](C)CCCCC(=O)N[C@@H](CCN)C(=O)N[C@H](C(=O)N[C@@H](CCN)C(=O)N[C@H]1CCNC(=O)[C@H]([C@@H](C)O)NC(=O)[C@H](CCN)NC(=O)[C@H](CCN)NC(=O)[C@H](CC(C)C)NC(=O)[C@@H](CC(C)C)NC(=O)[C@H](CCN)NC1=O)[C@@H](C)O` [colistin, reference compound] (X1-[Dab]T[Dab][Dab][Dab][dL]L[Dab][Dab]T; lactam 4-C (inferred); N-terminus assumed), in data set [1] (13 colistin-susceptible K. pneumoniae substrains), the “average MIC, colistin-susceptible substrains only” value came out at 0.88 µM. The “MIC in the colistin-sensitive substrains” value in data set [1] (colistin-sensitive K. pneumoniae substrains) was < 2 µM.
As to “LL-37: the human cathelicidin, natural AMP control [reference compound]”, the “antibacterial efficacy” value in data set [1] was “ineffective”.
Take “GVKKKWKKKLGLTLWLKISGVV [A4-198, version scrambled to α-helical content, with a similar hydrophobicity as A4-153]”: the Random in data set [2] (Euk33/peptide molar ratio 0:1) stood at 35.9%; in data set [2] (Euk33/peptide molar ratio 5:1), 34.7%; in data set [2] (Euk33/peptide molar ratio 10:1) it was 37.0%; in data set [2] (Euk33/peptide molar ratio 30:1), 38.7%; in data set [2] (Euk33/peptide molar ratio 70:1), 41.8%; in data set [3] (G(−)IM/peptide molar ratio 0:1), 35.9%. In addition, the Random in data set [3] (G(−)IM/peptide molar ratio 1:1) was determined as 32.7%; in data set [3] (G(−)IM/peptide molar ratio 5:1), 41.0%; in data set [3] (setting [4]), 42.11%; in data set [3] (setting [5]), 12.1%; in data set [3] (setting [6]), 30.7%; in data set [3] (setting [7]), 34.9%. For the same compound, the Random in data set [3] (setting [8]) was 37.6%; in data set [3] (setting [9]), 37.1%. Further, the α-helix was 2.9% in data set [2] (Euk33/peptide molar ratio 0:1); 5.7% in data set [2] (Euk33/peptide molar ratio 5:1); 5.9% in data set [2] (Euk33/peptide molar ratio 10:1); 6.2% and 6% in data set [2] (Euk33/peptide molar ratio 30:1); 10.3% in data set [2] (Euk33/peptide molar ratio 70:1); 2.9% in data set [3] (G(−)IM/peptide molar ratio 0:1). The α-helix in data set [3] (G(−)IM/peptide molar ratio 1:1) was 2.6%; in data set [3] (G(−)IM/peptide molar ratio 5:1), 22.0%; in data set [3] (setting [4]), 15.5%; in data set [3] (setting [5]) it was 9.1%; in data set [3] (setting [6]), 4.6%; in data set [3] (setting [7]), 0.2%. Further, the α-helix in data set [3] (setting [8]) worked out at 0.2%; in data set [3] (setting [9]), 2.0%. For the same compound, the β-sheet in data set [2] (Euk33/peptide molar ratio 0:1) came out at 56.7%; in data set [2] (Euk33/peptide molar ratio 5:1), 53.6%; in data set [2] (Euk33/peptide molar ratio 10:1), 51.9%; in data set [2] (Euk33/peptide molar ratio 30:1), 49.4%; in data set [2] (Euk33/peptide molar ratio 70:1) it was 47.9%; in data set [3] (G(−)IM/peptide molar ratio 0:1), 56.7%. Moreover, the β-sheet is 55.9% in data set [3] (G(−)IM/peptide molar ratio 1:1); 24.4% in data set [3] (G(−)IM/peptide molar ratio 5:1); 32.0% in data set [3] (setting [4]); 48.1% in data set [3] (setting [5]); 44.5% in data set [3] (setting [6]); 44.5% in data set [3] (setting [7]). The β-sheet in data set [3] (setting [8]) worked out at 46.4%; in data set [3] (setting [9]), 46.2%. The β-turn in data set [2] (Euk33/peptide molar ratio 0:1) is on record as 4.5%; in data set [2] (Euk33/peptide molar ratio 5:1) it was 6.0%; in data set [2] (Euk33/peptide molar ratio 10:1), 5.2%; in data set [2] (Euk33/peptide molar ratio 30:1), 5.7%; in data set [2] (Euk33/peptide molar ratio 70:1) it was 0%; in data set [3] (G(−)IM/peptide molar ratio 0:1), 4.5%. Moreover, the β-turn in data set [3] (G(−)IM/peptide molar ratio 1:1) was found to be 8.8%; in data set [3] (G(−)IM/peptide molar ratio 5:1) it was 12.6%; in data set [3] (setting [4]) it was 10.4%; in data set [3] (setting [5]), 30.7%; in data set [3] (setting [6]) it was 20.2%; in data set [3] (setting [7]), 20.4%. The β-turn in data set [3] (setting [8]) came out at 15.8%; in data set [3] (setting [9]) it was 14.7%. The “average MIC value” in data set [1] (average over 25 K. pneumoniae substrains, 37 °C, 16 h, OD 570 nm, growth at 32 μM counted as 64 μM) was “highest MIC value”. The “antibacterial efficacy” value in data set [1] is “ineffective”.
